Data set [1] can be described thus: cells. The settings on record: Homo sapiens, MRC-5 SV2, 72 h.
Description: (§1) Cytotoxicity against human MRC5 SV2 cells assessed as reduction in cell viability incubated for 3 days by fluorimetry
For data set [2], the system named is Macrophage. Put plainly: cells. The following applies: Mus musculus, 72 h.
Description: (§2) Cytotoxicity against mouse peritoneal Macrophage cells assessed as reduction in cell viability incubated for 3 days by fluorimetry
Data set [3] is described as follows: in vitro. The settings on record: human, MRC5 SV2 cells.
Description: as §1
Data set [4] in a line: in vitro. The settings on record: human, liver microsomes. (In general: Liver microsomes are a subcellular fraction often used to study metabolism.)
Description: Metabolic stability in human liver microsomes assessed as intrinsic clearance at 0.5 uM incubated for 30 mins by LC-MS/MS analysis
A short description of data set [5]: in vitro. The settings on record: mouse, liver microsomes.
Description: Metabolic stability in mouse liver microsomes assessed as intrinsic clearance at 0.5 uM incubated for 30 mins by LC-MS/MS analysis
Data set [6] is described as follows: physchem. The settings on record: buffer, pH 7.4.
Description: Lipophilicity, logD of compound at pH 7.4 by HPLC analysis
Data set [7] in a line: in vitro. The following applies: mouse, peritoneal macrophages.
Description: as §2
A short description of data set [8]: in vitro. The settings on record: PAMPA. (In PAMPA a lipid-coated filter parts donor from acceptor wells.)
Description: Effective permeability of compound by PAMPA assay
For data set [9], the system named is Trypanosoma cruzi. As to the kind of experiment: microbe, parasite or virus in culture. The following applies: Tulahuen CL2, MRC-5 SV2, 168 h.
Description: Antitrypanosomal activity against Trypanosoma cruzi Tulahuen CL2 amastigotes infected in human MRC5 SV2 cells incubated for 7 days by chlorophenol red beta-D-galactopyranoside substrate based spectrophotometric assay
Data set [10] has as its system Trypanosoma brucei. Put plainly: microbe, parasite or virus in culture. The settings on record: Squib 427, 72 h.
Description: Antitrypanosomal activity against Trypanosoma brucei Squib 427 assessed as reduction in parasite growth incubated for 72 hrs by resazurin dye based fluorimetric analysis
In data set [11] the test system is Trypanosoma brucei rhodesiense. As to the kind of experiment: microbe, parasite or virus in culture. The settings on record: STIB900, 72 h.
Description: Antiprotozoal activity against Trypanosoma brucei rhodesiense STIB900 trypomastigotes incubated for 72 hrs by resazurin dye based fluorimetric analysis
For data set [12], the system named is Leishmania infantum. Put plainly: microbe, parasite or virus in culture. The settings on record: for IC50: MHOM/MA(BE)/67/ITMAP263, 120 h; for IC90: MHOM/MA(BE)/67/ITMAP263, in Mus musculus, 120 h.
Description: Antileishmanial activity against amastigote stage of Leishmania infantum MHOM/MA(BE)/67/ITMAP263 infected in mouse peritoneal macrophage assessed as parasite growth inhibition incubated for 5 days by Giemsa staining based assay

With `O=C(c1ccccn1)N1CCCC(c2cc3ncccc3[nH]2)C1` (stereo not drawn), the IC50 in data set [1], in data set [2], in data set [9], in data set [10], in data set [11] and in [12] was 64 µM throughout. Besides, the IC90 at 72 h in [3] and in [7] was 64 µM throughout. The CLint scaled at 0.5 h, 0.5 µM in data set [4] was < 25 mL/min/kg; in data set [5], 523 mL/min/kg. Besides, the microsomal CLint at 0.5 h, 0.5 µM is < 23 µL/min/mg in data set [4] and 164 µL/min/mg in data set [5]. Also, the logD in [6] worked out at 1.85. For the same compound, in [8], the apparent permeability (Papp) came out at 2.33 ×10⁻⁶ cm/s. For the same compound, the IC90 in [9], in data set [10], in [11] and in data set [12] was 64 µM in each case.

`O=C(NCCc1nc2ccccc2[nH]1)c1ccccc1`: the IC50 in [1], in data set [2], in data set [9], in [10], in [11] and in data set [12] was 64 µM throughout. Also, the IC90 at 72 h in data set [3] and in data set [7] was 64 µM in each case. Moreover, the IC90 in [9], in [10], in data set [11] and in data set [12] was 64 µM throughout.

In the case of `O=S(=O)(c1ccccc1)N1CC=C(c2cc3ncccc3[nH]2)CC1`, the IC50 came out at 64 µM in data set [1]; 45.3 µM in [2]; 64 µM in data set [9]; 64 µM in data set [10]; 64 µM in data set [11]; 45.6 µM in data set [12]. The 90% effect concentration (IC90) at 72 h worked out at 64 µM in [3] and 59.7 µM in data set [7]. Further, the IC90 in [9] was determined as 64 µM; in data set [10], 64 µM; in [11] it was 64 µM; in [12] it was 60.5 µM.

As to `CC(C)(C)OC(=O)N1CCCC(O)(c2cc3ncccc3[nH]2)C1` (stereo not drawn), the IC50 in data set [1], in data set [2], in data set [9], in data set [10], in [11] and in data set [12] was 64 µM each time. Further, the IC90 at 72 h in [3] and in data set [7] was 64 µM throughout. Also, the IC90 in data set [9], in data set [10], in data set [11] and in data set [12] was 64 µM each time.

Regarding `CCN(CCc1nc2ncccc2[nH]1)C(=O)c1ccccc1`, the IC50 in data set [1], in data set [2], in data set [9], in data set [10], in data set [11] and in data set [12] was 64 µM throughout. The IC90 at 72 h in data set [3] and in [7] was 64 µM in each case. The same compound had a logD in data set [6] of 1.63. In addition, the Papp in [8] lay within 3.35 to 3.44 ×10⁻⁶ cm/s. Further, the IC90 in data set [9], in data set [10], in data set [11] and in data set [12] was 64 µM in each case.

Take `N#Cc1cnc2cc(C3CCCN(C(=O)c4cc(C(F)(F)F)no4)C3)[nH]c2c1` (stereo not drawn): the IC50 in data set [1] came out at 64 µM; in [2] it was 45.3 µM; in data set [9], 64 µM; in data set [10], 64 µM; in data set [11] it was 64 µM; in [12], 39.2 µM. The figures for the IC90 at 72 h in data set [3] and in data set [7] were 64 µM and 59.7 µM, respectively. Also, the CLint scaled at 0.5 h, 0.5 µM in data set [4] lay in the range of 50.5 to 54.2 mL/min/kg; in [5], 310 to 555 mL/min/kg. The intrinsic clearance (microsomal CLint) at 0.5 h, 0.5 µM in data set [4] is 32.9 µL/min/mg; in data set [5], 68.3 to 114 µL/min/mg. In data set [6], this compound gave a logD of 3.5. The compound also showed a Papp in [8] of 5.51 ×10⁻⁶ cm/s. For the same compound, the IC90 in data set [9] amounted to 64 µM; in [10] it was 64 µM; in [11], 64 µM; in data set [12] it was 59 µM.

Regarding `CC(=O)N1C=C(c2cc3ncccc3[nH]2)CCC1`, the IC50 in [1], in data set [2], in data set [9], in [10], in [11] and in data set [12] was 64 µM each time. The IC90 at 72 h in [3] and in data set [7] was 64 µM each time. Moreover, the IC90 in data set [9], in data set [10], in [11] and in data set [12] was 64 µM in each case.

With `CC(C)c1cc(C(=O)N2CCC(O)(c3cc4ncccc4[nH]3)CC2)on1`, the IC50 in [1] was 64 µM; in data set [2], 64 µM; in data set [9] it was 45.9 µM; in [10] it was 64 µM; in data set [11], 64 µM; in data set [12] it was 64 µM. The IC90 at 72 h in data set [3] and in data set [7] was 64 µM throughout. The values for the CLint scaled at 0.5 h, 0.5 µM in data set [4] and in data set [5] were 40.7 mL/min/kg and 4900 mL/min/kg, respectively. For the same compound, the microsomal CLint at 0.5 h, 0.5 µM in [4] turned out to be 24.1 µL/min/mg; in [5], 980 µL/min/mg. For the same compound, the logD in data set [6] is 2.46. The IC90 in [9], in data set [10], in data set [11] and in data set [12] was 64 µM throughout.

On to `CCCC(=O)N1CCCC(O)(c2cc3ncccc3[nH]2)C1` (stereo not drawn), for which the IC50 in data set [1], in data set [2], in data set [9], in data set [10], in data set [11] and in data set [12] was 64 µM each time. Moreover, the IC90 at 72 h in data set [3] and in data set [7] was 64 µM in each case. Moreover, the IC90 in data set [9], in data set [10], in data set [11] and in data set [12] was 64 µM throughout.

Consider `OC1(c2cc3ncccc3[nH]2)CCN(Cc2ccccc2)CC1`, for which the IC50 in data set [1], in data set [2], in data set [9], in data set [10], in [11] and in [12] was 64 µM in each case. Also, the IC90 at 72 h in [3] and in [7] was 64 µM in each case. Besides, the figures for the CLint scaled at 0.5 h, 0.5 µM in [4] and in [5] were 143 mL/min/kg and 1920 mL/min/kg, respectively. Also, the microsomal CLint at 0.5 h, 0.5 µM is 94.4 µL/min/mg in data set [4] and 434 µL/min/mg in data set [5]. Besides, the logD in data set [6] was 2.13. Moreover, the IC90 in data set [9], in [10], in [11] and in data set [12] was 64 µM in each case.

On to `O=C(c1ccccc1)N1CCC(O)(c2cc3ncccc3[nH]2)CC1`, for which the IC50 in data set [1], in data set [2], in [9], in data set [10], in data set [11] and in data set [12] was 64 µM each time. The IC90 at 72 h in data set [3] and in [7] was 64 µM throughout. Further, the figures for the CLint scaled at 0.5 h, 0.5 µM in data set [4] and in data set [5] were 52 mL/min/kg and 956 mL/min/kg, respectively. Besides, the results for the microsomal CLint at 0.5 h, 0.5 µM in data set [4] and in data set [5] were 31 µL/min/mg and 193 µL/min/mg, respectively. The compound also yielded a logD in data set [6] of 2.13. Further, the IC90 in data set [9], in [10], in data set [11] and in [12] was 64 µM each time.

On to `O=C(c1cncnc1)N1CCCC(c2cc3ncccc3[nH]2)C1` (stereo not drawn), for which the IC50 in [1], in data set [2], in data set [9], in [10], in data set [11] and in [12] was 64 µM throughout. In addition, the IC90 at 72 h in data set [3] and in [7] was 64 µM each time. The CLint scaled at 0.5 h, 0.5 µM in [4] is < 31.3 mL/min/kg. For the same compound, the microsomal CLint at 0.5 h, 0.5 µM in [4] is < 23 µL/min/mg. The compound also had a logD in data set [6] of 1.24. In addition, the IC90 in data set [9], in data set [10], in [11] and in data set [12] was 64 µM in each case.

For the compound `O=C(CCc1nc2ncccc2[nH]1)Nc1ccccc1`, the IC50 in data set [1], in data set [2], in [9], in [10], in data set [11] and in data set [12] was 64 µM in each case. Moreover, the IC90 at 72 h in data set [3] and in [7] was 64 µM each time. In addition, the logD in data set [6] was 1.75. In data set [8], this compound yielded a Papp of 2.72 ×10⁻⁶ cm/s. For the same compound, the IC90 in data set [9], in data set [10], in [11] and in data set [12] was 64 µM in each case.

As for `O=C(Cn1ccnc1[N+](=O)[O-])NCc1ccccc1` [BENZNIDAZOLE], the IC50 in data set [9] fell in the range of 2 to 5 µM.

Turning to `CC(=O)O[C@H]1C(=O)[C@@]2(C)[C@H]([C@H](OC(=O)c3ccccc3)[C@]3(O)C[C@H](OC(=O)[C@H](O)[C@@H](NC(=O)c4ccccc4)c4ccccc4)C(C)=C1C3(C)C)[C@]1(OC(C)=O)CO[C@@H]1C[C@@H]2O` [PACLITAXEL], the CC50 at 72 h in data set [3] was < 10 nM.

`CC[C@]1(O)C[C@@H]2CN(CCc3c([nH]c4ccccc34)[C@@](C(=O)OC)(c3cc4c(cc3OC)N(C)[C@H]3[C@@](O)(C(=O)OC)[C@H](OC(C)=O)[C@]5(CC)C=CCN6CC[C@]43[C@@H]65)C2)C1` [VINBLASTINE]: the CC50 at 72 h in data set [3] was < 10 nM.

As usually defined, the IC50 is the concentration at which inhibition is half-maximal. In general, IC90 refers to the concentration needed for an effect of 90%. The term CLint scaled denotes the capacity of the preparation to metabolise the compound, expressed as a volume cleared per time. What is called microsomal CLint is the rate of metabolic loss divided by the concentration. As usually defined, the logD is lipophilicity at a set pH, counting ionised and neutral species. A high value points to a more lipophilic compound. As a reminder, the Papp is the rate of passage across a membrane or cell layer, normalised by area and donor concentration. High values mean ready permeation, low ones poor permeation. Broadly, the CC50 is the concentration giving 50% cytotoxicity.

The record behind these values is ChEMBL document CHEMBL4342426, “Structure-activity relationship of 4-azaindole-2-piperidine derivatives as agents against Trypanosoma cruzi” (Bioorg Med Chem Lett, 2020).
